Results: PubChem BioAssay AID1918955 (Molecular Pharmacology Branch, DTP, NCI, 2023)

Tested on: NCI/ADR-RES complex spheroid viability
Assay: Anticancer human tumor NCI/ADR-RES cell line growth inhibition;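 further: spheroids exposed to compounds for 7 days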;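 on viability, T/C: 100% = DMSO vehicle treated spheroids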
Conditions: for IC50: curve of first compound; for viability, T/C: stronger effect = lower value
In short: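 Multicellular complex spheroids of tumor cells with human endothelial cells (HUVEC) and mesenchymal stem cells; the LSD1 inhibitor iadademstat was combined with standard-of-care or investigational agents. Top concentration at or near clinical Cmax, half-log dilutions; final DMSO ≤0.25%.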

[1] = second compound 0.1 µM, first compound 0.0316 µM
[2] = second compound 0.1 µM, first compound 0.1 µM
[3] = second compound 0.1 µM, first compound 0.316 µM
[4] = second compound 0.1 µM, first compound 1 µM
[5] = second compound 0.1 µM, first compound 3.16 µM
[6] = second compound 0.1 µM, first compound 10 µM
[7] = second compound 0.316 µM, first compound 0.0316 µM
[8] = second compound 0.316 µM, first compound 0.1 µM
[9] = second compound 0.316 µM, first compound 0.316 µM
[10] = second compound 0.316 µM, first compound 1 µM
[11] = second compound 0.316 µM, first compound 3.16 µM
[12] = second compound 0.316 µM, first compound 10 µM
[13] = second compound 1 µM, first compound 0.0316 µM
[14] = second compound 1 µM, first compound 0.1 µM
[15] = second compound 1 µM, first compound 0.316 µM
[16] = second compound 1 µM, first compound 1 µM
[17] = second compound 1 µM, first compound 3.16 µM
[18] = second compound 1 µM, first compound 10 µM
[19] = second compound 3.16 µM, first compound 0.0316 µM
[20] = second compound 3.16 µM, first compound 0.1 µM
[21] = second compound 3.16 µM, first compound 0.316 µM
[22] = second compound 3.16 µM, first compound 1 µM
[23] = second compound 3.16 µM, first compound 3.16 µM
[24] = second compound 3.16 µM, first compound 10 µM
[25] = second compound 10 µM, first compound 0.0316 µM
[26] = second compound 10 µM, first compound 0.1 µM
[27] = second compound 10 µM, first compound 0.316 µM
[28] = second compound 10 µM, first compound 1 µM
[29] = second compound 10 µM, first compound 3.16 µM
[30] = second compound 10 µM, first compound 10 µM

CC(C)c1c(-c2ccccc2)nc2c(C#N)c[nH]n2c1=O + NC1CCC(NC2CC2c2ccccc2)CC1
IC50 (second compound 0.1 µM): > 10000 nM | IC50 (second compound 0.316 µM): > 10000 nM | IC50 (second compound 1 µM): > 10000 nM | IC50 (second compound 3.16 µM): > 10000 nM | IC50 (second compound 10 µM): > 10000 nM | viability, T/C [1]: 102% | viability, T/C [2]: 111% | viability, T/C [3]: 109% | viability, T/C [4]: 100% | viability, T/C [5]: 99.1% | viability, T/C [6]: 105% | viability, T/C [7]: 102% | viability, T/C [8]: 112% | viability, T/C [9]: 105% | viability, T/C [10]: 113% | viability, T/C [11]: 103% | viability, T/C [12]: 98.4% | viability, T/C [13]: 108% | viability, T/C [14]: 111% | viability, T/C [15]: 110% | viability, T/C [16]: 107% | viability, T/C [17]: 104% | viability, T/C [18]: 104% | viability, T/C [19]: 105% | viability, T/C [20]: 104% | viability, T/C [21]: 108% | viability, T/C [22]: 107% | viability, T/C [23]: 105% | viability, T/C [24]: 97.3% | viability, T/C [25]: 105% | viability, T/C [26]: 98.9% | viability, T/C [27]: 98.6% | viability, T/C [28]: 97.5% | viability, T/C [29]: 97.1% | viability, T/C [30]: 91.5%

CC1COCCN1c1cc(-c2ccnn2C)c2ccnc(-c3ccn[nH]3)c2n1 (stereo not given) + NC1CCC(NC2CC2c2ccccc2)CC1
IC50 (second compound 0.1 µM): 15.5 nM | IC50 (second compound 0.316 µM): 16.3 nM | IC50 (second compound 1 µM): 16.5 nM | IC50 (second compound 3.16 µM): 13.8 nM | IC50 (second compound 10 µM): 7.44 nM | viability, T/C (second compound 0.1 µM, first compound 0.00316 µM): 99.8% | viability, T/C (second compound 0.1 µM, first compound 0.01 µM): 70.3% | viability, T/C [1]: 17.4% | viability, T/C [2]: 4.62% | viability, T/C [3]: 5.9% | viability, T/C [4]: 8.55% | viability, T/C (second compound 0.316 µM, first compound 0.00316 µM): 101% | viability, T/C (second compound 0.316 µM, first compound 0.01 µM): 74.4% | viability, T/C [7]: 16.8% | viability, T/C [8]: 2.98% | viability, T/C [9]: 2.91% | viability, T/C [10]: 2.82% | viability, T/C (second compound 1 µM, first compound 0.00316 µM): 102% | viability, T/C (second compound 1 µM, first compound 0.01 µM): 74.6% | viability, T/C [13]: 18.8% | viability, T/C [14]: 3.17% | viability, T/C [15]: 7.14% | viability, T/C [16]: 10.6% | viability, T/C (second compound 3.16 µM, first compound 0.00316 µM): 92.1% | viability, T/C (second compound 3.16 µM, first compound 0.01 µM): 65.6% | viability, T/C [19]: 10.3% | viability, T/C [20]: 2.4% | viability, T/C [21]: 6% | viability, T/C [22]: 2.76% | viability, T/C (second compound 10 µM, first compound 0.00316 µM): 83.9% | viability, T/C (second compound 10 µM, first compound 0.01 µM): 38.2% | viability, T/C [25]: 11.9% | viability, T/C [26]: 2.97% | viability, T/C [27]: 1.89% | viability, T/C [28]: 2.07%

COc1ccc([C@@H](O)c2cc(-c3ncnc4cc(N5CCOCC5)ccc34)c(F)cc2Cl)nn1 + NC1CCC(NC2CC2c2ccccc2)CC1
IC50 (second compound 0.1 µM): 3590 nM | IC50 (second compound 0.316 µM): 3970 nM | IC50 (second compound 1 µM): 3120 nM | IC50 (second compound 3.16 µM): 2970 nM | IC50 (second compound 10 µM): 2060 nM | viability, T/C [1]: 102% | viability, T/C [2]: 90.2% | viability, T/C [3]: 91.8% | viability, T/C [4]: 89.8% | viability, T/C [5]: 52.8% | viability, T/C [6]: 26.9% | viability, T/C [7]: 108% | viability, T/C [8]: 105% | viability, T/C [9]: 89.7% | viability, T/C [10]: 82.7% | viability, T/C [11]: 53.5% | viability, T/C [12]: 28.2% | viability, T/C [13]: 102% | viability, T/C [14]: 97.8% | viability, T/C [15]: 90.6% | viability, T/C [16]: 74.1% | viability, T/C [17]: 49.5% | viability, T/C [18]: 27.9% | viability, T/C [19]: 101% | viability, T/C [20]: 105% | viability, T/C [21]: 93.6% | viability, T/C [22]: 73.3% | viability, T/C [23]: 50% | viability, T/C [24]: 28.5% | viability, T/C [25]: 89.7% | viability, T/C [26]: 86.3% | viability, T/C [27]: 85.6% | viability, T/C [28]: 64.8% | viability, T/C [29]: 41.2% | viability, T/C [30]: 24.2%
